Entries after “also recorded” stand apart in the source; their conditions may differ. Like-named read-outs stand apart in the source and are kept apart here.
Experiments:
Type in all cases: physicochemical
[1] = Equilibrium solubility of Form I and Form II + V in EtOH/EtOAc, with XRPD of the end solids; conditions: for Solubility (wt %) / solubility: overnight; for End Form by XRPD: slurry 20° C. overnight
Protocol: Equilibrium solubilities of Form I and Form V were measured in EtOH/EtOAc at different ratios at 20° C. The Form V starting material contains some Form II as determined by XRPD.
In a 4 mL vial, 50 mg of the appropriate solid was mixed with 1 mL of each solvent. The resulting slurry was shaken at 600 rpm at 20° C. overnight. The supernatant from each vial was sampled for HPLC for equilibrium solubility, and the solids isolated and characterized by XRPD.

[2] = Competitive slurry of crystalline forms in a 1:2 mixture of EtOH(anhydrous):EtOAc; conditions: 1:2 EtOH (anhydrous):EtOAc
Protocol: A flask was charged with crystalline Form A (1.5 g) and crystalline Form I (1.5 g) with 30 mL of a 1:2 mixture of ethanol (anhydrous) and ethyl acetate. The resulting mixture was allowed to stir at room temperature for 5 hours resulting in a thick white slurry. An additional 6 mL of the 1:2 EtOH (anhydrous):EtOAc mixture was added. The suspension was allowed to stir for 5 days. A small sample of the suspension was pulled from the mixture after 22 hr, 46 hr and 118 hr. The samples were filtered, and dried in an oven at room temperature for 2-3 hr and characterized by XRPD.
A 20 mL vial was charged with 0.2 g of Form V and 0.2 g of Form I with 4 mL of a 1:2 EtOH (anhydrous):EtOAc mixture. The resulting suspension was stirred vigorously for 3 days. The suspension was filtered, and the solid was dried under reduced pressure at RT for 3 hr.
A 15 mL round bottom flask was equipped with a stir bar, thermometer and N2 inlet, and was charged with 0.25 g Form I and 0.25 g Form V. To the flask was added 6 mL of a 1:2 EtOH (anhydrous):EtOAc mixture was added to the flask resulting in a white suspension. The suspension was heated to 35° C. and stirred vigorously for 2 days. The suspension was filtered, and the resulting solid dried under reduced pressure at RT for 3 hr.
A 20 mL vial was charged with 0.2 g Form I and 0.2 g Form II. […]

[3] = Equilibrium solubility of Forms I, II and V in EtOH/Heptane; conditions: EtOH/HPT, all solvent ratios, 20 and 35° C.
Protocol: Equilibrium solubilities of Forms I, II and V were measured in EtOH/Heptane (HPT) solutions of different ratios at 20 and 35° C.
In 4 mL test vial, the appropriate solids (Form I or Form II containing Form V) were mixed with ˜1 mL of each solvent to generate slurry. The resulting slurry was shaken at 600 rpm at 20 and 35° C. overnight. After overnight aging, supernatant from each vial was sampled for HPLC for equilibrium solubility, solids were isolated to check by XRPD.

[4] = Competitive slurry conversion testing of Forms I, II and V in EtOH/EtOAc at 20° C.
Protocol: The relative form stability between Forms I, II and V was investigated by aging mixtures of the mixed forms in EtOH, EtOAc, and mixtures thereof. The Form V starting material contained some Form II as determined by its XRPD pattern.
In two 4 mL vials, enough Form I and Form V (containing some Form II) were mixed with 1 mL of the appropriate solvent to generate a slurry in each vial. The two slurries were combined and shaken at 600 rpm at 20° C. The solids from the slurries were isolated for XRPD characterization at time 0, 1 day and 2 days (FIG. 12A-D).

[5] = Dynamic vapor sorption (DVS); conditions: for Form of post-DVS sample by XRPD: after DVS at 25° C.
Protocol: Approximately 10 mg of sample was placed into a mesh vapor sorption balance pan and loaded into a DVS-1, DVS Intrinsic or DVS Advantage dynamic vapor sorption balance by Surface Measurement Systems. The sample was subjected to a ramping profile from 40-90% relative humidity (RH) at 10% increments, maintaining the sample at each step until a stable weight had been achieved (dm/dt 0.004%, minimum step length 30 min, maximum step length 500 min) at 25° C. After completion of the sorption cycle, the sample was dried using the same procedure to 0% RH and then a second sorption cycle back to 90% RH. Two cycles were performed. The weight change during the sorption/desorption cycles were plotted, allowing for the hygroscopic nature of the sample to be determined. XRPD analysis was then carried out on any solid retained.
Form I and II were analyzed by dynamic vapor sorption (DVS) at 25° C. (FIG. 16 and FIG. 17).

[6] = Form V / Form II interconversion on storage, drying and reslurry
Protocol: Increasing the temperature to 40° C. and drying Form V under vacuum increased the conversion rate to Form II (full conversion observed after 48 hr).

[7] = 100 V % EtOH in EtOH/EtOAc, 20° C.
[8] = ≤20 v % EtOH system, aging for two days

## C[C@H](Nc1cc(Cl)nc2c1cnn2[C@@H]1O[C@H](COP(=O)(O)CP(=O)(O)O)[C@@H](O)[C@H]1O)c1ccccc1F [Form I, (((((2R,3S,4R,5R)-5-(6-chloro-4-(((S)-1-(2-fluorophenyl)ethyl)amino)-1H-pyrazolo[3,4-b]pyridin-1-yl)-3,4-dihydroxytetrahydrofuran-2-yl)methoxy)(hydroxy)phosphoryl)methyl)phosphonic acid]
[1]; 0 V % EtOH in EtOH/EtOAc, 20° C.
  Solubility (wt %): 0.0% wt %
[1]; 0 V % EtOH in EtOH/EtOAc
  End Form by XRPD: Form I
[1]; 20 V % EtOH in EtOH/EtOAc, 20° C.
  Solubility (wt %): 0.1% wt %
[1]; 20 V % EtOH in EtOH/EtOAc
  End Form by XRPD: Form I
[1]; 33 V % EtOH in EtOH/EtOAc, 20° C.
  Solubility (wt %): 1.0% wt %
[1]; 33 V % EtOH in EtOH/EtOAc
  End Form by XRPD: Form I
[1]; 50 V % EtOH in EtOH/EtOAc, 20° C.
  Solubility (wt %): 1.7% wt %
[1]; 50 V % EtOH in EtOH/EtOAc
  End Form by XRPD: Form I
[1]; 67 V % EtOH in EtOH/EtOAc, 20° C.
  Solubility (wt %): 3.0% wt %
[1]; 67 V % EtOH in EtOH/EtOAc
  End Form by XRPD: Form I
[1]; 80 V % EtOH in EtOH/EtOAc, 20° C.
  Solubility (wt %): 4.2% wt %
[1]; 80 V % EtOH in EtOH/EtOAc
  End Form by XRPD: Form I
[1]; [7]
  Solubility (wt %): 6.4% wt %
  solubility: 46.54 mg/mL
[1]; 100 V % EtOH in EtOH/EtOAc
  End Form by XRPD: Form I
[1]; EtOAc rich solvent system except for too high EtOAc (with too low solubility)
  Relative form stability: more stable than Forms II and V
[1]; EtOH/EtOAc solvent mixture, 20 °C, organic solvent or mixture, thermodynamic from solid, 20 V % EtOH in EtOH/EtOAc, 20° C., read-out: Solubility
  solubility: 1.01 mg/mL
[1]; EtOH/EtOAc solvent mixture, 20 °C, organic solvent or mixture, thermodynamic from solid, 33 V % EtOH in EtOH/EtOAc, 20° C., read-out: Solubility
  solubility: 8.93 mg/mL
[1]; EtOH/EtOAc solvent mixture, 20 °C, organic solvent or mixture, thermodynamic from solid, 50 V % EtOH in EtOH/EtOAc, 20° C., read-out: Solubility
  solubility: 13.7 mg/mL
[1]; EtOH/EtOAc solvent mixture, 20 °C, organic solvent or mixture, thermodynamic from solid, 67 V % EtOH in EtOH/EtOAc, 20° C., read-out: Solubility
  solubility: 23.7 mg/mL
[1]; EtOH/EtOAc solvent mixture, 20 °C, organic solvent or mixture, thermodynamic from solid, 80 V % EtOH in EtOH/EtOAc, 20° C., read-out: Solubility
  solubility: 32.8 mg/mL
[1]; EtOH/EtOAc solvent mixture, 20 °C, organic solvent or mixture, thermodynamic from solid, 100 V % EtOH in EtOH/EtOAc, 20° C., read-out: Solubility
  solubility: ~46 mg/mL
[1]; EtOH/EtOAc, all ratios, 20° C.
  Crystal form change in solubility vials: No crystal form change
[2]; 35° C., 2 days
  Relative form stability: more stable than Form V; also recorded: more stable than Form II
[2]; RT
  Relative form stability: more stable than Form A; also recorded: more stable than Form V; also recorded: more stable than Form II
[3]
  Solubility compared between forms: higher than the solubility of Form II/V mixtures
[4]; solvents with ≥80 v % EtOH
  Form conversion in competitive slurry: converted to Form II
[4]; [8]
  Form conversion in competitive slurry: remained
[5]
  Form of post-DVS sample by XRPD: conversion to Form VI

## C[C@H](Nc1cc(Cl)nc2c1cnn2[C@@H]1O[C@H](COP(=O)(O)CP(=O)(O)O)[C@@H](O)[C@H]1O)c1ccccc1F [Form II, (((((2R,3S,4R,5R)-5-(6-chloro-4-(((S)-1-(2-fluorophenyl)ethyl)amino)-1H-pyrazolo[3,4-b]pyridin-1-yl)-3,4-dihydroxytetrahydrofuran-2-yl)methoxy)(hydroxy)phosphoryl)methyl)phosphonic acid]
[1]; EtOH rich or EtOAc lean solvent systems
  Relative form stability: more stable than Forms I and V
[6]; 1:1 EtOH:EtOAc mixture overnight with stirring
  Form recovered after resuspending: recovery of Form V
[5]
  Form of post-DVS sample by XRPD: conversion to Form VI
[5]; from 40% to 70% relative humidity (RH), 25° C.
  Water uptake compared with Form I: much less water uptake

## C[C@H](Nc1cc(Cl)nc2c1cnn2[C@@H]1O[C@H](COP(=O)(O)CP(=O)(O)O)[C@@H](O)[C@H]1O)c1ccccc1F [Form V, (((((2R,3S,4R,5R)-5-(6-chloro-4-(((S)-1-(2-fluorophenyl)ethyl)amino)-1H-pyrazolo[3,4-b]pyridin-1-yl)-3,4-dihydroxytetrahydrofuran-2-yl)methoxy)(hydroxy)phosphoryl)methyl)phosphonic acid]
[6]; 40° C., drying under vacuum
  Time for full conversion to Form II: 48 h
[6]; stored at ambient temperature under an N2 blanket
  Time for full conversion to Form II: > 48 h
[4]; 50~33 v % EtOH solvents
  Form conversion in competitive slurry: converted to Form I
[4]; solvents with ≥80 v % EtOH
  Form conversion in competitive slurry: converted to Form II
[4]; [8]
  Form conversion in competitive slurry: remained

Source: patent publication US11649261B2, “Crystalline forms of a CD73 inhibitor and uses thereof” (ARCUS BIOSCIENCES, INC., priority 2020, dated 2023)
